# Measured values as given in publication PMC5992379 (Frontiers in Molecular Neuroscience, 2018).
# “And” between values parts separate entries of the source, which are not always exact repeats. Identical values can stand only once. Like-named read-outs stand apart in the source and are kept apart here.
# What was measured:
# BALB/c mice [1] = conditions: for effect of antagonist on the antiallodynia effect of WOBE437, single dose / effect of antagonist on the antiallodynia effect of WOBE437, 3 days treatment / effect of antagonist on the antiinflammatory (edema) effect of WOBE437, 3 days treatment: antagonist i.p. 30 min before WOBE437 10 mg/kg i.p.
# Description: BALB/c mice were anesthetized with xylazine/ketamine (5 and 10 mg/kg, respectively) and subsequently monoarthritis was induced by intra-articular injection of complete Freund’s adjuvant (CFA, 40 μL; Sigma-Aldrich, St. Louis, MO, United states) into the right knee joint. The inflammation was allowed to develop for 14 days prior to pharmacological treatments starting at day 15 for 1 or 3 days, respectively. Mechanical sensitivity (allodynia) and knee diameter (edema) were evaluated 1 h post treatment in the ipsilateral and contralateral knees. Articular sensitivity was evaluated using a digital algometer (Bioseb, United states). […] A cut-off force of 300 g was considered to avoid damage in the tissue. The measurements were done in triplicates and the average was considered for the statistical analysis. To evaluate the degree of inflammation, knee diameter was measured in both extremities using a digital micrometer (Mitutoyo, United states). […] Indomethacin (5 mg/kg; Sigma-Aldrich, United states) was used as a reference drug (positive control). For all the compounds, dimethylsulfoxide (DMSO) was used as vehicle (20 μL, i.p.).
# [2] = for WOBE437 brain levels / WOBE437 plasma levels: 20 min after gavage
# Description: The mice were sacrificed by decapitation after gavage administration. Brain, blood, liver, kidney, and spleen were collected for the LC-MS/MS analyses. All tissues were briefly washed with ice cold PBS and immediately snap-frozen and stored at -80°C. Whole brain samples were dissected between the hemispheres. Blood samples were immediately centrifuged to obtain plasma, which was stored at -80°C.
# Samples extractions and LC-MS/MS measurements we performed as previously described ([Chicca et al., 2017]). Briefly, tissues were weighted and transferred in to extraction tubes containing three steel beads and 0.1 M formic acid. Tissues were homogenized and rapidly transferred to glass tubes containing 1.5 mL of ethyl acetate:hexane (9:1) 0.1% formic acid and internal standards (ISs). Samples were centrifuged and the organic phase was recovered. After evaporation, the extracts were reconstituted in 200 μL of ACN:ddH2O (8:2). 10 μL of the solution were injected in the LC-MS/MS system using the same LC and ionization protocols as described ([Chicca et al., 2017]).
# [3] = for Clearance: 1 μM WOBE437, preliminary; for MAB (estimated maximal bioavailability): from liver microsome clearance
# Description: Human or mice microsome clearance experiment were carried out as according to a previously describe protocol ([Soethoudt et al., 2017]). […] After 1, 3, 6, 9, 15, 25, 35, and 45 min, 40 μL of the preparation was transferred and quenched with 3:1 (v/v) acetonitrile containing internal standards. Samples were then cooled and centrifuged before analysis by LC-MS/MS. Log peak area ratios (test compound peak area/internal standard peak area) are plotted against incubation time using a linear fit. The calculated slope is used to determine the intrinsic clearance. Data are obtained from single experiments measured with multiple time-points.
# BALB/c male mice [4] = assay: Hot plate test (acute pain) after oral administration; type: in vivo
# Description: The test was performed using a clean 54–56°C hot plate (Thermo Fisher Scientific, United states) with a Plexiglas cylinder. The latency to show the first nociceptive response (paw lick or foot shake) was measured.
# BALB/c male mice [5] = assay: Tetrad test; type: in vivo; conditions: 50 mg/kg p.o., 1 h after gavage
# Description: The tetrad test was performed in the following order: rectal temperature, catalepsy, locomotion and analgesia. Rectal temperature was measured before (basal) and 1 h post gavage administration by using a thermocouple probe (Physitemp Instruments Inc., United states) and results were reported as the difference (Δ) between both temperatures. The bar test was used to evaluated catalepsy by placing the mouse in an imposed position with both forelimbs resting on a bar of 4 cm high; the end point of catalepsy was considered when both front limbs were removed or remained over 120 s. Locomotor activity was determined by placing the mouse on a rotarod (Erweka, Germany) at 4 rpm, the latency to fall was measured with a cut-off time of 120 s. Each mouse was previously trained to walk over the rotarod for at least 120 s. Catalepsy and locomotion were measured in three trials. Analgesia was evaluated with the hot plate test, each mouse was placed in a 54–56°C hot plate (Thermo Fisher Scientific, United states) with a Plexiglas cylinder, the latency to first nociceptive response (paw lick or foot shake) was measured.
# [6] = system: endocannabinoid levels (AEA, 2-AG); assay: Endocannabinoid, N-acylethanolamine and WOBE437 levels by LC-MS/MS after the hot plate test; type: in vivo, BALB/c male mice
# Description: The mice were sacrificed by decapitation after gavage administration. […] Whole brain samples were dissected between the hemispheres.
# Samples were centrifuged and the organic phase was recovered.
# BALB/c mice [7] = assay: Open field test in monoarthritic mice; type: in vivo; conditions: WOBE437 i.p.
# Description: Potential motor changes were evaluated in an open field box (40 cm × 40 cm × 30 cm, Plexiglas). The mice were individually placed in the center and allowed to move freely for 5 min. The locomotion activity was recorded with the OpenFieldTest^© ([Reynoso-Moreno et al., 2017]) and traveled distance was evaluated automatically. After every experiment, the box was cleaned with 70% ethanol to remove odors.
# [8] = system: Cnr1, Cnr2, Nape-pld, Dagla; assay: Real-time PCR of ECS genes after 3 days treatment in the monoarthritis model; type: in vivo, BALB/c mice; conditions: 10 mg/kg i.p., somatosensory cortex, thalamus, articular tissue
# Description: Total RNA extraction and reverse transcription were carried out with a previously described protocol ([Castro-Torres et al., 2015]). The kit LightCycler® FastStart DNA Master^PLUS SYBR Green I (Roche, United states) was used for the real-time PCR, according to manufacturer protocol, and the reaction was performed in the LightCycler 2.0 equipment (Roche, United states). The relative gene expression was calculated by using the method known as 2ˆ(-ΔΔCt) ([Livak and Schmittgen, 2001]). ΔΔCt was calculated using the following formula:
# (1) ΔΔCt=(CtTE−CtHE)−(CtTC−CtHC)
# Finally 2ˆ(-ΔΔCt) was calculated to obtain the fold change of gene expression. Every sample (n = 6-15, per group and region) was analyzed in duplicated and the mean value was considered for ΔΔCt calculation. Beta-actin was used as the housekeeping gene and mean of vehicle group was used as a calibrator. Sequences and size products of the primers for beta actin (Actb) cannabinoid CB1 receptor (Cnr1), cannabinoid CB2 receptor (Cnr2), diacylglycerol lipase alpha (Dagla), N-acylphosphatidylethanolamine specific phospholipase D (Nape-pld) are shown in Table 1.
# BALB/c male mice [9] = system: BALB/c male mice; design: method as in Chicca et al., 2017; conditions: i.p.; ref Chicca et al., 2017; cited from earlier work
# [10] = 50 mg/kg p.o., 1 h after gavage
compound,measurement,setting,value
Oc1cc2c(cc1O)CN(C(=S)NCCc1ccc(Cl)cc1)CCC2 [capsazepine],"effect of antagonist on the antiallodynia effect of WOBE437, single dose",BALB/c mice [1]; single dose,completely prevented
same,tolerability of the antagonist together with 3 days WOBE437 treatment,"BALB/c mice [1]; capsazepine with WOBE437 10 mg/kg i.p., 3 days",unexpected hypersensitivity
CCCCCCC/C=C/C=C/C(=O)NCCc1ccc(OC)c(OC)c1 [WOBE437],WOBE437 brain levels,[2]; 10 mg/kg p.o.,24.7 ± 25.3 pmol/g
same,WOBE437 plasma levels,[2]; 10 mg/kg p.o.,47.3 ± 32.5 pmol/mL
same,apparent Cmax in brain,[2]; 50 mg/kg p.o.,~500 pmol/g and 471.7 ± 182.6 pmol/g
same,apparent volume of distribution (Vd) at Cmax,[2]; 50 mg/kg p.o.,80.4 L/kg
same,apparent volume of distribution (Vd) at the steady state,[2]; 50 mg/kg p.o.,609 L/kg
same,factor of reduction of hepatic concentration between 20 and 40 min,[2]; 50 mg/kg p.o.,4
same,highest concentration in kidney,[2]; 50 mg/kg p.o.,2277 ± 916 pmol/g
same,highest concentration in spleen,[2]; 50 mg/kg p.o.,1030 ± 339 pmol/g
same,time after which WOBE437 is cleared from the brain,[2]; 50 mg/kg p.o.,approximately 180 min
same,"tmax in kidney, liver, and spleen",[2]; 50 mg/kg p.o.,≤ 20 min
same,brain levels after p.o. as compared to i.p.,[2]; 50 mg/kg p.o. vs 10 mg/kg i.p.,approximately 10 times lower
same,highest concentration in liver,"[2]; 50 mg/kg p.o., 20 min",4720 ± 3273 pmol/g
same,WOBE437 brain levels,[2]; 50 mg/kg p.o.,534.5 ± 109.9 pmol/g
same,WOBE437 plasma levels,[2]; 50 mg/kg p.o.,1731.5 ± 703.4 pmol/mL
same,hepatic concentration at 40 min,"[2]; 50 mg/kg p.o., 40 min",1080 pmol/g
same,WOBE437 concentration in brain 3 h after administration,"[2]; 50 mg/kg p.o., 3 h",18 pmol/g
same,Brain t1/2,"[2]; 50 mg/kg p.o., Figure 1B",62.7 min
same,Plasma t1/2,"[2]; 50 mg/kg p.o., Figure 1B",19.5 min
same,estimated concentration in brain,"[2]; 50 mg/kg p.o., equivalent of brain Cmax",399.7 ± 154.7 nM
same,Cmax,"[2]; read-out: apparent Cmax in plasma, 50 mg/kg p.o.",~2000 nM and 1930 nM
same,Clearance,[3]; human liver microsomes,0.657 mL/min/kg
same,MAB (estimated maximal bioavailability),[3]; humans,4%
same,MAB (estimated maximal bioavailability),[3]; mice,17%
same,Clearance,[3]; mouse liver microsomes,0.174 mL/min/kg
same,increase of pain threshold vs vehicle,BALB/c male mice [4]; [10],61.7%
same,pain threshold (latency to first nociceptive response),BALB/c male mice [4]; [10],9.4 ± 1.9 s
same,pain threshold (latency to first nociceptive response),"BALB/c male mice [4]; 100 mg/kg p.o., 1 h after gavage",11.7 ± 2.6 s
same,overall bioavailability compared to the i.p. administration route,"BALB/c male mice [4]; from effective doses in hot plate test, 50 mg/kg p.o. vs 10 mg/kg i.p.",20%
same,estimated effective dose (ED50),"BALB/c male mice [4]; p.o., hot plate",42.5 ± 3.9 mg/kg
same,minimum dose necessary to significantly increase the pain threshold,"BALB/c male mice [4]; p.o., hot plate",50 mg/kg
same,antinociception in tetrad test (hot plate),BALB/c male mice [5],significant antinociception
same,motor coordination (rotarod),BALB/c male mice [5],No statistical differences
same,change in body temperature,BALB/c male mice [5]; not statistically different,-0.8 ± 0.8 °C
same,latency of catalepsy,BALB/c male mice [5]; not statistically different,10.5 ± 10.6 s
same,2-AG levels in plasma,"[6]; 25 mg/kg p.o., 1 h",21.4 ± 4.5 pmol/mL
same,2-AG levels in plasma,"[6]; 50 mg/kg p.o., 1 h",22.6 ± 4.8 pmol/mL
same,2-AG levels in somatosensory cortex,"[6]; 50 mg/kg p.o., 1 h",no changes
same,AEA and 2-AG levels in total brain,"[6]; 50 mg/kg p.o., 1 h",tendency to increase
same,AEA levels in somatosensory cortex,"[6]; 50 mg/kg p.o., 1 h",significant increase
same,concentration of AEA in plasma,"[6]; 50 mg/kg p.o., 1 h",2.2 ± 0.3 pmol/mL
same,2-AG concentration in total brain,"[6]; 50 mg/kg p.o., 1 h, tendency, not significant",13.9 ± 2.6 nmol/g
same,2-AG levels in plasma,"[6]; 100 mg/kg p.o., 1 h",23.8 ± 5.7 pmol/mL
same,increase of 2-AG levels in plasma,"[6]; 25, 50, and 100 mg/kg p.o., vs control",40%
same,"levels of WOBE437 in somatosensory cortex, total brain and plasma","[6]; BALB/c mice, 1 h after p.o.",in the same range as in male C57BL6/J mice
same,"levels of N-acylethanolamines other than AEA (PEA, OEA, LEA)","[6]; somatosensory cortex, total brain or plasma, 1 h after p.o.",No changes
same,reduction in allodynia as compared to the contralateral knee,"BALB/c mice [1]; 10 mg/kg i.p., 3 days treatment",52%
same,reduction of inflammation (edema),"BALB/c mice [1]; 10 mg/kg i.p., 3 days treatment, as compared to the contralateral knee",58%
same,knee diameter,"BALB/c mice [1]; 10 mg/kg i.p., 3 days treatment, ipsilateral knee",5.3 ± 0.4 mm
same,allodynia after single dose,"BALB/c mice [1]; 10 mg/kg i.p., single dose, 1 h post treatment",significantly decrease allodynia
same,allodynia and edema at lower doses,BALB/c mice [1]; 2.5 and 5.0 mg/kg i.p.,did not show any significant changes
same,spontaneous motor activity (travel distance),BALB/c mice [7],without significant observable changes
same,"expression of Cnr1, Cnr2, Dagla and Nape-pld",[8],did not lead to any significant change
same,fully effective dose in the hot plate test upon systemic administration,BALB/c male mice [9],10 mg/kg
O=C(Nc1ccccc1)c1cc([N+](=O)[O-])ccc1Cl [GW9662],"effect of antagonist on the antiallodynia effect of WOBE437, 3 days treatment",BALB/c mice [1]; 3 days,fully abolished
same,"effect of antagonist on the antiinflammatory (edema) effect of WOBE437, 3 days treatment",BALB/c mice [1]; 3 days,only partially prevented
same,"effect of antagonist on the antiallodynia effect of WOBE437, single dose",BALB/c mice [1]; single dose,did not block
SR144528,"effect of antagonist on the antiallodynia effect of WOBE437, 3 days treatment",BALB/c mice [1]; 3 days,fully abolished
same,"effect of antagonist on the antiallodynia effect of WOBE437, single dose",BALB/c mice [1]; single dose,completely prevented
Cc1c(C(=O)NN2CCCCC2)nn(-c2ccc(Cl)cc2Cl)c1-c1ccc(Cl)cc1 [rimonabant],effect of antagonist pre-treatment on the antinociceptive effect of WOBE437,BALB/c male mice [4]; rimonabant 5 mg/kg i.p. 30 min before WOBE437 50 or 100 mg/kg p.o.,completely abolished
same,"effect of antagonist on the antiallodynia effect of WOBE437, 3 days treatment",BALB/c mice [1]; 3 days,fully abolished
same,"effect of antagonist on the antiinflammatory (edema) effect of WOBE437, 3 days treatment",BALB/c mice [1]; 3 days,only partially prevented
same,"effect of antagonist on the antiallodynia effect of WOBE437, single dose",BALB/c mice [1]; single dose,did not block
